Where two headings read alike, the source gives them in different places. Marks after values point to notes of the source that are not given here.
Key:
Acute toxicity = type: in vivo, Rats (SD strain); conditions: 1 g/kg orally by gastric gavage, fasted rats, groups of 5
Experimental: Rats of either sex (SD strain, […]) were used in groups of 5. The animals were deprived of food from the previous day (16-18 hours before) and 1 g/kg of the compound of Example 1 was administered orally by gastric gavage. Then, deaths during the subsequent one-week period were recorded.

GST-P-positive lesions = test: Inhibitory effect on hepatic chemooncogenesis in rats (DEN/AAF/hepatectomy precancerous lesion model, GST-P immunostaining); type: in vivo, F344 rats; conditions: for GST-P^+ area (mm^2/cm^2) mean±S.E. / GST-P^+ foci (N/cm^2) mean±S.E.: 0.01% in chow from week 2 to final day (4-week experiment); for GST-P^+ area (mm^2/cm^2) inhibition (%) / GST-P^+ foci (N/cm^2) inhibition (%): 0.01% in chow, versus own control group
Experimental: Method: Five-week-old male F344 rats (Slc), a precancerous lesion model was constructed using the following protocol in accordance with the method of Solt and Faber (Nature, 263, 702-703, 1976). [formula] • ↑ : DEN 200 mg/kg, i.p. • : 70% hepatectomy • : 0.02% AAF • : Diet or water • ←→ : Drug administration period
Thus, the duration of the experiment being set at 4 weeks, 200 mg/kg of diethylnitrosoamine (hereinafter referred to briefly as DEN) was first administered intraperitoneally. Beginning week 2, drinking water containing 0.02% of 2-acetylaminofluorene (hereinafter referred to briefly as AAF) was given ad libitum. At the beginning of week 3, 70% hepatectomy was performed. The test drug was mixed into the animal chow (F-2, Funabashi Farm) at the concentration of 0.01% and administered from week 2 through the final day of the experiment. The compound of Example 1 was used as the test drug and 2,4-diamino-6-(2,5-dichlorophenyl)-1,3,5-triazine as the reference compound.
On the final day of the experiment, all the animals were sacrificed by cervical dislocation under ether anaesthesia. Immediately a portion of the liver was excised, quick-frozen in dry ice-acetone, and stored until used. From the liver, 8 µm-thick frozen sections were prepared and using Vectastain ABC Kit (Funakoshi Yakuhin), immunostained by the ABC method (an enzyme-labeled antibody method) using anti-glutathione-S-transferase placental form (hereinafter referred to briefly as GST-P) antibody as the primary antibody. Thus, sections were returned to room temperature under anhydrous conditions and immersed in 10 mM phosphate-buffered saline (hereinafter referred to briefly as PBS) at pH 7.2 for 15 minutes. Then, goat normal serum and the primary antibody (a 500-fold dilution, 20 µl) were applied to the section and allowed to react overnight. After the reaction, the section was washed with PBS. Then, anti-rabbit secondary antibody was applied and the reaction was carried out for 30 minutes. After washing with PBS, avidin-biotin complex was applied and allowed to react for 30 minutes. The section was washed with PBS and treated with 0.1% diaminobenzidine (DAB) containing 0.02% of hydrogen peroxide for color development, dehydrated, and sealed.
The number of GST-P-positive lesions per cm^2 liver tissue section was counted under an optical microscope and the area was measured with an image analyzer (SPICCA-II, Japan Avionics). The significance testing of mean values was made by Student's t-test and the result was evaluated at the 5% leval of significance.

[1] = test system: BCG-LPS-induced fulminant hepatitis; test: Inhibitory effect on BCG-LPS-induced fulminant hepatitis in mice (antihepatitis effect); type: in vivo, BALB/C mice; conditions: for Number of deaths/number of animals/used: 50 mg/kg orally 1 hour before LPS i.v., deaths at 48 hours, control mortality 80-100%; for inhibition at 50 mg/kg: Mus musculus, po, 50 mg/kg orally, plasma transaminase at hour 4 after LPS
Experimental: The antihepatitis action of the compound of the invention could be confirmed by the following test in mice. This test is the commonest animal test for evaluating the antihepatitis effect of drugs. It is known that the antihepatitis effect evaluated by this test method is highly correlated with the clinical effect in man (Kondo, Y. et al. Chem. Pharm. Bull. 38, 2887-2889, 1990). Method: Six-week-old male BALB/C mice were intravenously dosed with 1 mg of BCG and after 2 weeks, 50 mg/kg of the test drug was administered orally. Then, after 1 hour, 2.5 µg of lipopolysaccharide (LPS) was injected intravenously to induce hepatitis. To find the LPS-associated mortality, the percentage of deaths at 48 hours was calculated. The mortality in the control group was 80-100%. […] However, for reference's sake, blood was drawn from the orbital vein at hour 4 and the plasma transaminase (GOT, GPT) concentrations were determined. As a reference compound, 2,4-diamino-6-(2,5-dichlorophenyl)-1,3,5-triazine was used.

[2] = Effect on body weight gain; type: in vivo; conditions: 1,000 mg/kg administered repeatedly (daily), rats
Experimental: The compound of Example 1 was administered to rats daily to investigate its effect on body weight gain.

Row | SMILES | deaths during the subsequent one-week period (Acute toxicity) | GST-P^+ area (mm^2/cm^2) mean±S.E. (GST-P-positive lesions) | GST-P^+ foci (N/cm^2) mean±S.E. (GST-P-positive lesions) | GST-P^+ area (mm^2/cm^2) inhibition (%) (GST-P-positive lesions) | GST-P^+ foci (N/cm^2) inhibition (%) (GST-P-positive lesions) | Number of deaths/number of animals/used [1] | inhibition at 50 mg/kg ([1]; read-out: % Inhibition GOT) | inhibition at 50 mg/kg ([1]; read-out: % Inhibition GPT) | effect on body weight gain [2]
1 | Nc1nc(-c2cc(Cl)ccc2Cl)nc(N(CCO)CCO)n1 [Example 1, 2-amino-4-[N,N-bis(2-hydroxyethyl)amino]-6-(2,5-dichlorophenyl)-1,3,5-triazine] | no death was found at all | 0.8± 0.2 mm^2/cm^2 | 41.5± 5.2 N/cm^2 | 48.6% | 28.9% | 2/10** | 37% | 17% | did not affect body weight gain
2 | CNc1nc(N)nc(-c2cc(Cl)ccc2Cl)n1 [Example 2, 2-Amino-4-(2,5-dichlorophenyl)-6-methylamino-1,3,5-triazine] | – | – | – | – | – | 0/10** | 46% | 33% | –
3 | CN(C)c1nc(N)nc(-c2cc(Cl)ccc2Cl)n1 [Example 3, 2-Amino-4-(2,5-dichlorophenyl)-6-dimethylamino-1,3,5-triazine] | – | – | – | – | – | 0/10** | 37% | 38% | –
4 | CN(CCO)c1nc(N)nc(-c2cc(Cl)ccc2Cl)n1 [Example 5, 2-Amino-4-(2,5-dichlorophenyl)-6-[N-methyl-N-(2-hydroxyethyl)amino]-1,3,5-triazine] | – | – | – | – | – | 0/10** | 43% | 18% | –
5 | COCCNc1nc(N)nc(-c2cc(Cl)ccc2Cl)n1 [Example 6, 2-Amino-4-(2,5-dichlorophenyl)-6-(2-methoxyethylamino)-1,3,5-triazine] | – | – | – | – | – | 2/10** | 34% | 29% | –
6 | Cc1ccc(OCCN2CCN(c3nc(N)nc(-c4cc(Cl)ccc4Cl)n3)CC2)cc1 [Example 21, 2-Amino-4-(2,5-dichlorophenyl)-6-[4-[2-(4-methylphenoxy)ethyl]piperazin-1-yl]-1,3,5-triazine] | – | – | – | – | – | 0/10** | 29% | 10% | –
7 | Nc1nc(-c2cc(Cl)ccc2Cl)nc(N2CCCC2)n1 [Example 30, 2-Amino-4-(2,5-dichlorophenyl)-6-pyrrolidino-1,3,5-triazine] | – | – | – | – | – | 0/18** | 45% | 31% | –
8 | Nc1nc(-c2cc(Cl)ccc2Cl)nc(N2CCC(O)C2)n1.O=C(O)/C=C\C(=O)O (stereo not shown) [Example 31, 2-Amino-4-(2,5-dichlorophenyl)-6-(3-hydroxy-1-pyrrolidinyl)-1,3,5-triazine maleate] | – | – | – | – | – | 1/18** | 47% | 34% | –
9 | Cl.Nc1nc(-c2cc(Cl)ccc2Cl)nc(N2CCC[C@H]2CO)n1 [Example 32, (S)-2-amino-4-(2,5-dichlorophenyl)-6-(2-hydroxymethyl-1-pyrrolidinyl)-1,3,5-triazine hydrochloride] | – | – | – | – | – | 0/18** | 62% | 60% | –
10 | Cl.Nc1nc(-c2cc(Cl)ccc2Cl)nc(N2CCC[C@@H]2CO)n1 [Example 33, (R)-2-amino-4-(2,5-dichlorophenyl)-6-(2-hydroxymethyl-1-pyrrolidinyl)-1,3,5-triazine hydrochloride] | – | – | – | – | – | 0/18** | 39% | 41% | –
11 | Nc1nc(-c2cc(Cl)ccc2Cl)nc(N2CCCC(O)C2)n1 (stereo not shown) [Example 37, 2-Amino-4-(2,5-dichlorophenyl)-6-(3-hydroxy-1-piperidinyl)-1,3,5-triazine] | – | – | – | – | – | 0/18** | 43% | 38% | –
12 | Nc1nc(-c2cc(Cl)ccc2Cl)nc(N2CCC(=O)CC2)n1 [Example 56, 2-Amino-4-(2,5-dichlorophenyl)-6-(4-oxo-1-piperidinyl)-1,3,5-triazine] | – | – | – | – | – | 0/15** | 38% | 37% | –
13 | Cl.Cl.NCC1CCN(c2nc(N)nc(-c3cc(Cl)ccc3Cl)n2)C1 (stereo not shown) [Example 62, 2-Amino-4-(2,5-dichlorophenyl)-6-(3-aminomethyl-1-pyrrolidinyl)-1,3,5-triazine dihydrochloride] | – | – | – | – | – | 0/15** | 29% | 38% | –
14 | Nc1nc(N)nc(-c2cc(Cl)ccc2Cl)n1 [Reference Compound, 2,4-diamino-6-(2,5-dichlorophenyl)-1,3,5-triazine, reference compound] | – | 3.6±0.7 mm^2/cm^2 | 67.9± 8.7 N/cm^2 | 7.7% | 9.7% | 0/10* | 21% | -6% | –
15 | Nc1nc(-c2cc(Cl)ccc2Cl)nc(N2CCOCC2)n1 [Reference Example 5, 2-Amino-4-(2,5-dichlorophenyl)-6-morpholino-1,3,5-triazine] | – | – | – | – | – | 0/18** | 58% | 45% | –

Source: patent publication EP0775487A1, “TRIAZINE DERIVATIVE AND MEDICINE” (NIPPON SHINYAKU COMPANY, LIMITED, priority 1994, dated 1996)
